Data: PMC12293521 (Current Issues in Molecular Biology, 2025)

System: not listed separately
Experiment: ABTS radical-scavenging assay
Conditions: mean ± SD
Description: The ABTS assay was determined according to Elbouzidi et al., with some modifications. The stock solutions included 7.4 mM ABTS and 2.6 mM potassium persulfate. ABTS radical cation was prepared by mixing the two stock solutions in equal quantities and allowed to stand for 16 h at room temperature in the dark. And then, ABTS radical solution was adjusted with phosphate-buffered saline (pH 7.4) to an absorbance of 0.7–0.8 at 734 nm. For this assay, 190 μL of ABTS radical solution was mixed with 10 μL of each test sample solution in 96-well plates. After 60 min, the decrease of absorbance was measured at 734 nm using a microplate reader (Thermo Fisher Scientific Inc., Waltham, MA, USA). The standard curve was linear between 0.025 and 0.9 mM Trolox. […] Additional dilution was needed if the ABTS value measured was over the linear range of the standard curve.

| SMILES | ABTS IC50 [µg/mL] |
| --- | --- |
| O=C1O[C@H]([C@@H](O)CO)C(O)=C1O [AA, ascorbic acid, reference compound] | 136.78 ± 5.97 |
| C=CCc1ccc(O)c(OC)c1 [Eugenol] | 19.42 ± 0.58 |
| CC1=CCC(C(C)(C)O)CC1 (stereo not drawn) [Terpineol, α-terpineol] | 476.49 ± 19.93 |

Next, values leading:

| ABTS IC50 [µg/mL] | SMILES |
| --- | --- |
| 153.55 ± 9.65 | Cc1cc(C(C)(C)C)c(O)c(C(C)(C)C)c1 [BHT, butylated hydroxytoluene, reference compound] |
| 755.82 ± 67.30 | CC12CCC(CC1=O)C2(C)C (centres unmarked) [Camphor] |

System: not listed separately
Experiment: Ferric-reducing antioxidant power (FRAP) assay
Conditions: concentration for 50% of maximal ferric-reducing capacity; mean ± SD, triplicate
Description: The antioxidant capacity of the tested compounds was evaluated using the ferric-reducing antioxidant power (FRAP) assay, based on the reduction of ferric-tripyridyltriazine (Fe^3+-TPTZ) complex to its ferrous form (Fe^2+), resulting in a blue-colored product with a maximum absorbance at 593 nm. The assay was performed according to the modified method of Benzie and Strain [13], with modifications for microplate format and adjusted concentration ranges according to Rodrigues et al.. The FRAP working solution was freshly prepared by mixing 300 mM acetate buffer (pH 3.6), 10 mM TPTZ in 40 mM HCl, and 20 mM FeCl3·6H2O in a 10:1:1 volume ratio. The mixture was warmed to 37 °C before use to ensure optimal reaction conditions. For each reaction, 180 µL of the freshly prepared FRAP reagent was added to a well of a 96-well microplate, followed by 20 µL of the test compound at different concentrations (1–200 µg/mL) prepared in methanol. The mixture was incubated at 37 °C for 30 min. The increase in absorbance was measured at 593 nm using a microplate reader. […] All measurements were performed in triplicate and presented as the mean ± standard deviation.

| SMILES | FRAP EC50 [µg/mL] |
| --- | --- |
| O=C1O[C@H]([C@@H](O)CO)C(O)=C1O [AA, ascorbic acid, reference compound] | 56.92 ± 2.99 |
| C=CCc1ccc(O)c(OC)c1 [Eugenol] | 78.55 ± 8.74 |
| CC1=CCC(C(C)(C)O)CC1 (stereo not drawn) [Terpineol, α-terpineol] | 389.01 ± 9.53 |

Other lines, results leading:

| FRAP EC50 [µg/mL] | SMILES |
| --- | --- |
| 63.88 ± 4.83 | Cc1cc(C(C)(C)C)c(O)c(C(C)(C)C)c1 [BHT, butylated hydroxytoluene, reference compound] |
| 1459.83 ± 39.96 | CC12CCC(CC1=O)C2(C)C (centres unmarked) [Camphor] |

System: not listed separately
Experiment: Cupric ion-reducing antioxidant capacity (CUPRAC) assay
Conditions: concentration for 50% of maximal cupric-reducing activity; mean ± SD, triplicate
Description: The total antioxidant capacity of the tested monoterpenes was also assessed using the Cupric ion-reducing antioxidant capacity (CUPRAC) assay, which measures the ability of antioxidants to reduce the Cu^2+-neocuproine complex to the stable-colored Cu^+-neocuproine chelate, absorbing at 450 nm. The assay was carried out following the protocol provided by the CUPRAC assay kit (Bioquochem, Asturias, Spain), with slight modifications to accommodate the tested compounds according to Salem et al.. The CUPRAC working solution consisted of a mixture of copper (II) chloride (10 mM), neocuproine (7.5 mM), and ammonium acetate buffer (1 M, pH 7.0) in a 1:1:1 volume ratio. For the assay, 40 µL of each test solution (prepared in methanol at concentrations ranging from 1 to 200 µg/mL) was added to 200 µL of the CUPRAC working solution in a well of a 96-well plate. The plate was incubated at room temperature for 30 min in the dark to allow full color development. The absorbance was then measured at 450 nm using a microplate spectrophotometer (Thermo Fisher Scientific Inc., Waltham, MA, USA). […] All tests were conducted in triplicate, and results are presented as mean ± SD.

| SMILES | CUPRAC IC50 [µg/mL] |
| --- | --- |
| C=CCc1ccc(O)c(OC)c1 [Eugenol] | 39.53 ± 2.83 |

Target: T1, α-amylase from porcine pancreas (Sus scrofa, UniProt P00690)
T1 construct: purchased Sigma Aldrich; host or cells: porcine pancreas
T1 sequence (P00690 16-511): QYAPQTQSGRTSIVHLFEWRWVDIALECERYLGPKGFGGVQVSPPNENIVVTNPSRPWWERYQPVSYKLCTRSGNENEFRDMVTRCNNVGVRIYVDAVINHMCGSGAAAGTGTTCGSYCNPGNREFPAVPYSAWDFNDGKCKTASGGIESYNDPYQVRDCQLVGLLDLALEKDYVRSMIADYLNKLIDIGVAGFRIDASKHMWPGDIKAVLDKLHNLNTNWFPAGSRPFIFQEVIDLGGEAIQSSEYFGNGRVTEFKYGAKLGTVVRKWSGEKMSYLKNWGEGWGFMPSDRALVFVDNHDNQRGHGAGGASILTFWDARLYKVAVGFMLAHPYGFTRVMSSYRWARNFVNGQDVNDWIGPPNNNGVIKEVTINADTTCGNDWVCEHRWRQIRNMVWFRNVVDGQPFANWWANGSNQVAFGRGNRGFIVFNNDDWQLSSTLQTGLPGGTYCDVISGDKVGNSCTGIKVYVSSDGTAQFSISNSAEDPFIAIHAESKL
Experiment: α-amylase inhibition assay (CNPG3 substrate)
Format: biochemical
Conditions: experimental; means ± SD of three independent replicates; read-out: AAI IC50 (α-amylase inhibition) (converted)
Description: (§1) Aldose Reductase Inhibitor Screening Kit (Biovision, Milpitas, CA, USA) was used for the aldose reductase inhibition assay.
A pre-incubation mixture was prepared which contained 40 mM phosphate buffer (pH 6.9) together with different concentrations (1, 5, 10, 50, 100, 200 µg/mL) of the compounds. A 0.2 U of α-amylase enzyme was added to this mixture, and the plate was then incubated for 15 min at 37 °C. Then, 2-chloro-4-nitrophenyl maltotrioside (CNPG3) substrate was added, where the final concentration was 0.9 µmole/mL. […] A control which was devoid of the compounds was also run in parallel.

| IC50 [µM] | SMILES |
| --- | --- |
| 2340 | CC12CCC(CC1=O)C2(C)C (centres unmarked) [Camphor] |
| 1740 | CC1=CCC(C(C)(C)O)CC1 (stereo not drawn) [Terpineol, α-terpineol] |

| SMILES | IC50 [µM] |
| --- | --- |
| C=CCc1ccc(O)c(OC)c1 [Eugenol] | 339 |

Target: α-glucosidase enzyme from Saccharomyces cerevisiae
Experiment: α-glucosidase inhibition assay (PNP-G substrate)
Format: biochemical
Conditions: experimental; means ± SD of three independent replicates
Description: as §1
The activity of the compounds was assessed spectrophotometrically according to Li et al., with slight modifications. In a volume of 100 µL of 40 mM phosphate buffer (pH 6.9), different concentrations (1, 5, 10, 50, 100, 200 µg/mL) of the compounds were prepared. The tested samples were added to a reaction mixture in a 96-well microplate containing 20 µL of the phosphate buffer and 20 µL of 5 mM p-nitrophenyl α -D-glucopyranoside (PNP-G) in the buffer. […] The IC50 for test compounds as well as the standard was calculated and presented.

| AGI IC50 (α-glucosidase inhibition) [µg/mL] | SMILES |
| --- | --- |
| 484.95 ± 17.65 | CC12CCC(CC1=O)C2(C)C (centres unmarked) [Camphor] |
| 340.42 ± 23.19 | CC1=CCC(C(C)(C)O)CC1 (stereo not drawn) [Terpineol, α-terpineol] |

| SMILES | AGI IC50 (α-glucosidase inhibition) [µg/mL] |
| --- | --- |
| C=CCc1ccc(O)c(OC)c1 [Eugenol] | 84.93 ± 6.14 |

Target: T2, porcine pancreatic lipase (Sus scrofa, UniProt P00591)
T2 construct: purchased Sigma Aldrich
T2 sequence (P00591 1-450): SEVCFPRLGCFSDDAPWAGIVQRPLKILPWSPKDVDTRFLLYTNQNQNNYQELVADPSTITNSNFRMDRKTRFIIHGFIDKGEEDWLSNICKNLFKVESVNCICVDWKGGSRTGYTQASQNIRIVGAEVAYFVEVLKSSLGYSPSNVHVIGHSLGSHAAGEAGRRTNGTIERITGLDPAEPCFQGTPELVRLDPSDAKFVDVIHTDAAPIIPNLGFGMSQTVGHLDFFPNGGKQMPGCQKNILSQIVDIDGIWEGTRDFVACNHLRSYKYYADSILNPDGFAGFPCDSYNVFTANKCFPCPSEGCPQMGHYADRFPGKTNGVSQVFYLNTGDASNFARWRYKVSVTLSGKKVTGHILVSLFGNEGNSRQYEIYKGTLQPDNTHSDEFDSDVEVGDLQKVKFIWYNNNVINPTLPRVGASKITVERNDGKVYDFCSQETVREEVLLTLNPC
Experiment: porcine pancreatic lipase inhibition assay (PNPB substrate)
Format: biochemical
Conditions: experimental; means ± SD of three independent replicates; read-out: LIP IC50 (lipase inhibition) (converted)
Description: as §1
The porcine pancreatic lipase inhibition assay was utilized in this work, with modifications made based on a previous study. A stock solution of each compound at 1 mg/mL in 10% DMSO was used to prepare […] with concentrations 1, 5, 10, 50, 100, 200 µg/mL by means of dilution with methanol. Just before usage, the pancreatic lipase enzyme was freshly produced as a 1 mg/mL stock solution. […] In individual test tubes, 0.1 mL of porcine pancreatic lipase (1 mg/mL) was mixed with 0.2 mL of each compound concentration. To achieve a final volume of 1 mL, the Tri-HCl solution (pH 7.4) was added, and the mixtures were incubated at 25 °C for 15 min. Following the incubation, 0.1 mL of PNPB solution was introduced to each test tube. The mixtures were once again incubated for 30 min at 37 °C. […] All tests were conducted in triplicate, and the inhibition was calculated as per Equation (1).(1) %Lipase Inhibition=AB−AE/AB×100 where AB is the recorded absorbance of the blank solution, and AE is the recorded absorbance of the compound’s solution.

| IC50 [µM] | SMILES |
| --- | --- |
| 3540 | CC12CCC(CC1=O)C2(C)C (centres unmarked) [Camphor] |
| 392 | CC1=CCC(C(C)(C)O)CC1 (stereo not drawn) [Terpineol, α-terpineol] |

| SMILES | IC50 [µM] |
| --- | --- |
| C=CCc1ccc(O)c(OC)c1 [Eugenol] | 388 |

Target: T3, aldose reductase (Homo sapiens, UniProt P15121)
T3 construct: purchased Biovision, Milpitas, CA, USA
Experiment: aldose reductase inhibition assay (Aldose Reductase Inhibitor Screening Kit)
Format: biochemical
Conditions: experimental; means ± SD of three independent replicates; read-out: ALR IC50 (aldose reductase inhibition) (converted)
Description: Aldose Reductase Inhibitor Screening Kit (Biovision, Milpitas, CA, USA) was used for the aldose reductase inhibition assay. Determination of the aldose reductase inhibitory effectiveness of the investigated compounds was performed kinetically using the Aldose Reductase Inhibitor Screening Kit (Biovision, Milpitas, CA, USA), according to the manufacturer's protocol. The decrease in the absorption of NADPH at 340 nm was measured in a mixture containing NADPH, the enzyme, and its substrate, […], in addition to test samples [21]. […] After incubation, 40 μL of enzyme substrate in assay buffer was added, and the absorbance was measured at 340 nm kinetically for 60-90 min at 37 °C. A background control free from the enzyme was run and subtracted from the readings. The IC50 was calculated and presented for the samples and the standard.

| IC50 [µM] | SMILES |
| --- | --- |
| 1710 | CC12CCC(CC1=O)C2(C)C (centres unmarked) [Camphor] |
| 899 | CC1=CCC(C(C)(C)O)CC1 (stereo not drawn) [Terpineol, α-terpineol] |

| SMILES | IC50 [µM] |
| --- | --- |
| C=CCc1ccc(O)c(OC)c1 [Eugenol] | 241 |
